Assay results: US8691946B2, “Methods and compositions for soft tissue repair” (Affinergy, LLC, priority 2009, dated 2014)
Ends that are not written are not given here.

Columns and labels:
[1] = system: HUVECs or UASMCs; assay: Selective isolation of endothelial versus smooth muscle cells with peptide-conjugated magnetic beads in whole blood; format: cell-based, human; details: medium containing 20% whole blood, 30 min
Procedure: (§1) The synthetic biotinylated binding peptide SEQ ID NO: 4 was further examined for its ability to bind endothelial cells compared to other cell types (see FIG. 16). […] ECFCs are clonally expanded cells isolated from human umbilical cord blood, and are considered highly proliferative endothelial progenitor cells (EPCs) based on their clonogenic and proliferative potential. In another experiment, binding peptide SEQ ID NO: 4 was assayed for its ability to selectively isolate endothelial cells versus smooth muscle cells in the presence of whole blood. HUVECs or UASMCs were incubated in the presence of medium containing 20% whole blood and binding peptide SEQ ID NO: 4-conjugated magnetic beads (via biotin-SA) for 30 min. The solutions containing the bead-peptide-cell complexes were then passed through a […] LS column in a magnetic field. The column was washed, and the remaining peptide-bound cells were then released from the magnetic field and counted.

[2] = system: MSCs from bone marrow aspirate; assay: Capture of MSCs from bone marrow aspirate with biotinylated peptide and magnetic beads (CFU); format: cell-based
Procedure: This experiment was performed to examine the ability of cell binding peptide SEQ ID NO: 4 to capture MSCs directly from bone marrow aspirate in comparison to two separate antibodies against the CD105 I antigen (CD105) and the MSCA-1 stem cell antigen (MSCA-1). This experiment employed biotinylated peptides with streptavidin-coated […] magnetic beads. The peptides were biotinylated as described herein at Example 2. […] For the antibody capture experiment, magnetic beads having covalently attached CD105 or MSCA-1 antibody were employed ([…]). Prior to incubation with the peptides and antibodies, bone marrow aspirate (BMA) was mixed with 5 volumes of 10 mM ammonium chloride for 1-2 min at room temperature to lyse red blood cells. The lysate was centrifuged for 5 min at 300×g and the supernatant discarded. The cell pellet was washed with wash buffer (PBS+0.5% bovine serum albumin+0.5 mM EDTA) and cells were resuspended in […] peptide at a concentration of 10^8 per mL. For peptide binding studies, the cell suspension was incubated with the biotinylated peptides for 30 min at 4° C. to allow for binding. After incubation, cells were spun down at 300×g for 5 min, and peptide solution was aspirated. Cells were then rinsed twice with wash buffer, with centrifugation between washes. […] Colony forming units (CFUs) were counted after 14 days in culture. […]

[3] = system: MSCs captured from bone marrow; assay: Adipocyte differentiation of captured MSCs (Oil Red O); format: cell-based; details: 21 days adipocyte differentiation medium
Procedure: After capture of MSCs using cell binding peptide SEQ ID NO: 4 with the […] magnetic system according to Example 6, the ability of the captured cells to differentiate into an adipocyte lineage was examined. The MSCs present in the […] column eluants (see Example 6) were cultured for 21 days in complete medium (DMEM, 10% FBS, 100 units/mL penicillin, 100 μg/mL streptomycin, and 2 mM glutamine) supplemented with 0.5 mM isobutyl methylxanthine, 1 μM dexamethasone, 10 μM insulin, 200 μM indomethacin, and 1% antibiotic/antimycotic. Following the 21 day incubation, the cells were fixed in 4% paraformaldehyde in PBS for 15 minutes, washed in 60% isopropanol for 5 minutes, and stained with Oil Red O (SIGMA) for 10 minutes to determine the extent of adipogenesis (see FIG. 26, panels A (undifferentiated MSCs) and panel B (adipocyte differentiated MSCs)). The image of the adipose differentiated cells (FIG. 26, panel B) contains a larger magnification inset where the lipid vacuoles are clearly visible.

[4] = system: MSCs captured from bone marrow; assay: Osteoblast differentiation of captured MSCs (Alizarin Red S); format: cell-based; details: 14 days osteoblast differentiation medium
Procedure: For osteogenic differentiation, the MSCs present in the […] column eluants (see Example 6) were cultured for 14 days in complete medium supplemented with 0.1 μM dexamethasone, 50 μM ascorbate-2-phosphate, 10 mM β-glycerophosphate, and 1% antibiotic/antimycotic. Calcium mineralization was measured by Alizarin Red S (SIGMA) staining to reveal mineralizing osteoblasts (see FIG. 26, panel C (undifferentiated MSCs) and panel D (osteoblast differentiated MSCs)).

[5] = system: human umbilical vein endothelial cells (HUVECs); assay: Biotinylated peptide binding to endothelial and other cells by flow cytometry; details: biotinylated peptide 10 μM
Procedure: as §1

[6] = system: umbilical artery smooth muscle cells (UASMCs); assay: as above; details: biotinylated peptide 10 μM
Procedure: as §1

[7] = system: human MSCs; assay: Biotinylated peptide binding by flow cytometry (Neutravidin-PE); details: biotinylated peptide 25 μM, 30 min, 4° C.
Description: (§2) The synthetic biotinylated cell binding peptide SEQ ID NO: 4 was examined for its ability to specifically bind MSCs compared to a number of other cells types including adipose-derived mesenchymal stem cells (ASCs), dermal fibroblasts, rodent MSCs, red blood cells, monocytes, lymphocytes and granulocytes. The cell binding peptide was biotinylated as described herein at Example 2. Cultured cells of each type were either purchased (ASCs and dermal fibroblasts) or isolated from rodent bone marrow (rodent MSCs) or human blood. Cells were first harvested and resuspended at 10^6/mL in PBS+2% fetal bovine serum (FBS). An aliquot of cells (50 μL) was incubated in 50 μL of peptide solution (25 μM in PBS+FBS) for 30 min at 4° C. Cells were then washed twice in PBS+FBS with 300×g centrifugation for 5 min between washes. Fluorescently-tagged neutravidin (Neutravidin-PE from INVITROGEN) was then added to the cells to label biotinylated peptide bound to cells. Neutravidin-PE was diluted 1:250 from stock and applied at 50 μL to cells. Cells were then washed in PBS+FBS, and acquired on a BD […]. Peptide reactivity was then measured as percent positivity relative to Neutravidin-PE staining without the addition of biotinylated peptide.

[8] = system: human ASCs (adipose-derived mesenchymal stem cells); assay: as above; details: biotinylated peptide 25 μM, 30 min, 4° C.
Description: as §2

[9] = system: MSCs captured from bone marrow; assay: Chondrocyte differentiation of captured MSCs (aggrecan immunostaining); format: cell-based; details: 24 days CHONDRODIFF medium
Procedure: To examine chondrocyte differentiation, the MSCs present in the […] column eluants (see Example 6) were pelleted by centrifugation at 150×g for 5 minutes. Cells were washed once with 1 ml MACS NH CHONDRODIFF Medium without disturbing the pellet. Cells were spun again and 1 mL CHONDRODIFF Medium was added to each pellet. Every third day, medium was aspirated and replaced with fresh pre-warmed medium. After 24 days in culture, cells exposed to CHONDRODIFF medium formed cartilage plugs or nodules, whereas control cells formed only loose or small nodules. Cells were washed once with PBS and fixed in neutral buffered formalin overnight. Sections were embedded in paraffin and sectioned at 5 microns. Sections were examined by hemotoxylin and eosin staining (data not shown). Sections were further examined by immunostaining for aggrecan, a major structural component of cartilage. In FIG. 27, sections from the periphery (panels A and B) or center (panels C and D) were incubated with an antibody against aggrecan (ABCAM) (panels B and D) or with secondary detection reagents only as a control (panels A and C), then counterstained with DAPI to reveal cell nuclei. […] Control images of captured cells grown in the absence of differentiation medium could not be taken due to the small and loose nature of nodules.

[10] = system: dermal fibroblasts; assay: Biotinylated peptide binding by flow cytometry (Neutravidin-PE); design: species or system human; details: biotinylated peptide 25 μM, 30 min, 4° C.
Description: as §2

[11] = system: HUVECs; assay: Endothelial cell phenotype and anti-thrombogenic protein secretion (flow cytometry, ELISA); format: cell-based, human; details: HUVECs on collagen with 10 μM free peptide, 24 hours
Procedure: Once immobilized on a vascular graft, endothelial cells must retain their characteristic properties of promoting endothelialization. Therefore, the phenotype, viability, and anti-thrombogenic protein expression profiles were evaluated for endothelial cells in the presence of collagen modified with the endothelial cell binding peptide SEQ ID NO: 4 (generated according to Example 7 using BS^3 reagent). […] Specifically, HUVECs were plated on SEQ ID NO: 4 peptide-modified collagen, collagen with 10 μM free SEQ ID NO: 4 peptide or collagen alone for 24 hours. Flow cytometry was performed using a BD […], and ELISAs were performed according to manufacturers instructions. (FIGS. 22A & 22B). Tissue-type Plasminogen Activator (t-PA) and 6-keto Prostaglandin F1a protein expression levels secreted in this assay are aligned with other reports on cultured HUVECS (Kimura and Yokoi-Hayashi, Biochim Biophys Acta, 1996, 1310:1-4; Merhi-Soussi et al., J Leukoc Biol, 2000, 68:881-9).

[12] = system: endothelial colony forming cells (ECFCs); assay: Biotinylated peptide binding to endothelial and other cells by flow cytometry; design: species or system human; details: biotinylated peptide 10 μM
Procedure: as §1

[13] = system: peripheral blood cells; assay: as above; design: species or system human; details: biotinylated peptide 10 μM
Procedure: as §1

[14] = system: human MSCs; assay: Capture of cultured MSCs on peptide-coated streptavidin microbeads (LS columns); format: cell-based; details: 160,000 cultured human MSCs
Procedure: In this experiment the ability of the biotinylated cell binding peptide SEQ ID NO: 4 to capture human MSCs from a homogeneous cultured cell population was examined. The cell binding peptide SEQ ID NO: 4 was biotinylated as described herein at Example 2. The cell binding peptide SEQ ID NO: 4, and a non-binding control peptide, were added to separate 300 μl volumes of […] BIOTEC Streptavidin microbeads at a concentration of 20 μM. These beads are made from iron filings, coated with a dextran coating which is functionalized with streptavidin moieties. Peptide was incubated with beads for 45 min on ice. The 300 μl of peptide coated microbeads were added to pre-equilibrated LS columns outside of the magnetic field to evenly distribute the magnetic beads throughout the columns. Columns were then placed into a magnetic field, and excess peptide was washed away with buffer while retaining the peptide coated microbeads. Cultured and expanded human MSCs from bone marrow aspirate (160,000 cells; LONZA) were added to each LS column and allowed to pass through by gravity flow. Flowthrough was collected and cycled through the columns 5 times, after which the columns were washed with 5 ml buffer. […] The collected flowthrough with 5 ml wash and eluted cells were spun down, resuspended in a smaller volume, and counted by hemacytometer (see FIG. 17). […]

Question: How did the “HUVECs isolated compared to UASMCs” value [1] turn out when “SSFWDVCQGDGTCYGGGSR (not fully specified; cysteine pairing not given here) [SEQ ID NO: 4, tested biotinylated (C-terminal GSSGK(biotin)) or attached to substrates via spacer and lysine]” was run?
Answer: The value was 8 fold.

Question: And the “MSC capture from bone marrow aspirate (CFUs after 14 days)” value ([2]; compared with CD105 and MSCA-1 antibody beads)?
Answer: The value was “as efficient as capture by either of the CD105 or MSCA-1 antibodies”.

Question: And the “immunoreactivity of captured cells (CD29, CD44, CD73, CD105, CD166, CD90, CD45, CD34)” value ([2]; compared with CD105 isolated cells)?
Answer: The value was “no changes were observed”.

Question: And the “adipogenesis of captured MSCs” value [3]?
Answer: The value was “adipogenesis pathway remains intact”.

Question: And the “osteogenic differentiation of captured MSCs” value [4]?
Answer: Its value is “osteogenic pathway remains intact”.

Question: And the “cross-reactivity with HUVECs” value [5]?
Answer: The value was “cross-reacted strongly”.

Question: What about the “cross-reactivity with UASMCs” value [6] of the same sequence?
Answer: The value was “weakly”.

Question: What about the “binding to human MSCs (percent positivity relative to Neutravidin-PE alone)” value [7] of the same sequence?
Answer: The value was “high binding”.

Question: What about the “binding to human ASCs” value [8] of the same sequence?
Answer: Its value is “high binding”.

Question: And the “aggrecan in nodules formed from captured MSCs” value [9]?
Answer: Its value is “aggrecan could be detected”.

Question: What about the “binding to dermal fibroblasts” value [10] of the same sequence?
Answer: Its value is “high binding”.

Question: And the “endothelial cell phenotype and anti-thrombogenic protein secretion” value [11]?
Answer: Its value is “maintained their endothelial cell phenotype and their ability to secrete anti-thrombogenic proteins”.

Question: And the “cross-reactivity with ECFCs” value [12]?
Answer: Its value is “cross-reacted strongly”.

Question: And the “cross-reactivity with peripheral blood cells” value [13]?
Answer: Its value is “no cross-reactivity”.

Question: And the “capture of MSCs” value [14]?
Answer: Its value is “approximately 70%”.
